Test systems include CAKI-1 renal; CCRF-CEM leukemia; HCC-2998 colon; HCT-15 colon; K-562 leukemia; M14 melanoma; NCI/ADR-RES ovarian; OVCAR-4 ovarian; OVCAR-5 ovarian; SNB-19 CNS.
What all share (assay): growth of human tumour cells (NCI), 48 h

Molecules are shown by their SMILES.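 Step 1: Grow cells in 96-well plates. Step 2: Expose to compound for 48 hours at 5 concentrations. Step 3: Interpolate endpoints linearly; if unreached, use highest concentration. Here, GI50 denotes the concentration required for 50% inhibition of growth. The concentration for full growth arrest is given as TGI.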

In the case of `CNC(C)[C@H]1CCC2C3CC=C4C(=O)[C@@H](NC(=O)C=C(C)C)CC[C@]4(C)C3CC[C@@]21C` (stereo not given in full), the GI50 with CAKI-1 renal is 1.68 µM; with CCRF-CEM leukemia, 1.77 µM; with HCC-2998 colon it was 0.626 µM; in the test on HCT-15 colon it was 1.14 µM; in the test on K-562 leukemia, 0.478 µM; in the test with M14 melanoma, 1.72 µM. Moreover, the GI50 was 3.44 µM with NCI/ADR-RES ovarian, 2.22 µM with OVCAR-4 ovarian, 2.53 µM in the test on OVCAR-5 ovarian and 5.26 µM in the test on SNB-19 CNS. Moreover, the TGI was 5.53 µM in the test with CAKI-1 renal; 7.8 µM in the test on CCRF-CEM leukemia; 3.02 µM in the test with HCC-2998 colon; 2.89 µM in the test on HCT-15 colon; 2.19 µM with K-562 leukemia; 3.45 µM in the test with M14 melanoma. Further, the TGI in the test on NCI/ADR-RES ovarian was determined as 15 µM; in the test with OVCAR-4 ovarian, 17.9 µM; with OVCAR-5 ovarian it was 10.9 µM; with SNB-19 CNS it was 17.4 µM.

Regarding `Cc1noc2c1-c1ccccc1C(c1ccc(Cl)cc1)=N[C@H]2CC(N)=O`, the GI50 in the test with CAKI-1 renal was 0.368 µM; in the test on CCRF-CEM leukemia, 14.8 µM; with HCC-2998 colon, 9.5 µM; in the test on HCT-15 colon it was 2.49 µM; in the test on K-562 leukemia it was 4.67 µM; with M14 melanoma it was 2.37 µM. Further, the GI50 in the test on NCI/ADR-RES ovarian was 2.74 µM; in the test on OVCAR-4 ovarian, 4.35 µM; in the test with OVCAR-5 ovarian it was more than 100 µM; with SNB-19 CNS, 11 µM. In addition, the TGI in the test on CAKI-1 renal, in the test on CCRF-CEM leukemia, in the test with HCC-2998 colon, with HCT-15 colon, in the test on K-562 leukemia and in the test on M14 melanoma was more than 100 µM each time. Besides, the TGI in the test on NCI/ADR-RES ovarian, with OVCAR-4 ovarian, in the test on OVCAR-5 ovarian and in the test with SNB-19 CNS was more than 100 µM each time.

On to `C=C1C(=O)OC2C1CC(OC(C)=O)/C(C)=C/CCC1(C)OC21` (stereo not given), for which the TGI in the test with CAKI-1 renal, with CCRF-CEM leukemia, with HCC-2998 colon, with HCT-15 colon, in the test on K-562 leukemia and with M14 melanoma was more than 100 µM in each case. Moreover, the TGI in the test with NCI/ADR-RES ovarian, in the test on OVCAR-4 ovarian, with OVCAR-5 ovarian and in the test with SNB-19 CNS was more than 100 µM each time.

Take `CCOC(=O)c1sc(NC(=O)COc2cccc(/C=C3\CCc4cc(OC)ccc4C3=O)c2)nc1C`: the GI50 in the test on CAKI-1 renal is 7.16 µM; with CCRF-CEM leukemia, 1.26 µM; with HCC-2998 colon it was 8.59 µM; in the test on HCT-15 colon it was 2.93 µM; in the test with K-562 leukemia it was 1.94 µM; in the test with M14 melanoma, 7.95 µM. Also, the GI50 is 4.84 µM in the test on NCI/ADR-RES ovarian, 9.07 µM in the test with OVCAR-4 ovarian, 13.5 µM in the test with OVCAR-5 ovarian and 2.78 µM in the test with SNB-19 CNS. Further, the TGI in the test with CAKI-1 renal was more than 100 µM; with CCRF-CEM leukemia, 4.3 µM; in the test with HCC-2998 colon it was 38.8 µM; in the test with HCT-15 colon, more than 100 µM; in the test with K-562 leukemia, 6.26 µM; in the test on M14 melanoma, more than 100 µM. The TGI in the test on NCI/ADR-RES ovarian, in the test on OVCAR-4 ovarian, in the test on OVCAR-5 ovarian and with SNB-19 CNS was more than 100 µM each time.

Turning to `CN1C(NNC(=O)c2cccnc2)=NS(=O)(=O)c2cc(Cl)ccc21`, the GI50 in the test with CAKI-1 renal, in the test on CCRF-CEM leukemia, with HCC-2998 colon, in the test on HCT-15 colon, in the test with K-562 leukemia and with M14 melanoma was more than 100 µM throughout. The GI50 with NCI/ADR-RES ovarian, in the test with OVCAR-4 ovarian, with OVCAR-5 ovarian and in the test on SNB-19 CNS was more than 100 µM in each case. Besides, the TGI in the test with CAKI-1 renal, with CCRF-CEM leukemia, in the test on HCC-2998 colon, with HCT-15 colon, in the test on K-562 leukemia and in the test with M14 melanoma was more than 100 µM in each case. Further, the TGI in the test with NCI/ADR-RES ovarian, with OVCAR-4 ovarian, in the test on OVCAR-5 ovarian and with SNB-19 CNS was more than 100 µM throughout.

With `NCCCOc1cc2ccccc2cc1C(=O)NCCCOc1cc2ccccc2cc1C(=O)Nc1ccc(Cl)cc1O`, the GI50 in the test on CAKI-1 renal was 0.829 µM; in the test with CCRF-CEM leukemia, 0.334 µM; with HCC-2998 colon it was 0.992 µM; in the test on HCT-15 colon it was 0.658 µM; in the test on K-562 leukemia, 0.262 µM; in the test on M14 melanoma it was 0.881 µM. Further, the GI50 in the test on NCI/ADR-RES ovarian is 1.22 µM; in the test with OVCAR-4 ovarian, 0.247 µM; in the test on OVCAR-5 ovarian, 1.09 µM; in the test on SNB-19 CNS, 0.72 µM. The TGI with CAKI-1 renal is 2.42 µM; with CCRF-CEM leukemia, 11.5 µM; with HCC-2998 colon, 2.48 µM; with HCT-15 colon, 2.32 µM; with K-562 leukemia, 1.02 µM; with M14 melanoma it was 2.55 µM. Also, the TGI is 6.01 µM with NCI/ADR-RES ovarian, 0.737 µM with OVCAR-4 ovarian, 2.56 µM in the test on OVCAR-5 ovarian and 2.88 µM in the test with SNB-19 CNS.

As for `CC1=NC(C)(COC(=O)C2(C)NC(C)(CO)CO2)COC1=O` (stereo not given), the TGI in the test with CAKI-1 renal, in the test with CCRF-CEM leukemia, in the test with HCC-2998 colon, in the test with HCT-15 colon, in the test on K-562 leukemia and in the test on M14 melanoma was more than 100 µM in each case. The TGI in the test with NCI/ADR-RES ovarian, in the test on OVCAR-4 ovarian, in the test on OVCAR-5 ovarian and in the test on SNB-19 CNS was more than 100 µM in each case.

Take `O=[N+]([O-])c1ccc(Sc2c3ccccc3nc3ccccc23)cn1`: the TGI in the test on CAKI-1 renal was 11.7 µM; in the test on CCRF-CEM leukemia, 8.3 µM; in the test on HCC-2998 colon, more than 81.7 µM; with HCT-15 colon, 28.8 µM; with K-562 leukemia, 6.66 µM; in the test on M14 melanoma, 31.5 µM. The TGI in the test on NCI/ADR-RES ovarian was more than 100 µM; in the test on OVCAR-4 ovarian, 75.9 µM; in the test on OVCAR-5 ovarian, more than 100 µM; in the test with SNB-19 CNS it was more than 66.6 µM.

Consider `COc1ccc(-c2ccc(NNC(=O)c3ccc(F)cc3)nn2)cc1OC`, for which the GI50 with CAKI-1 renal was 34.3 µM; in the test with CCRF-CEM leukemia, 38 µM; with HCC-2998 colon it was more than 100 µM; in the test on HCT-15 colon, 65.5 µM; in the test on K-562 leukemia, 58.7 µM; with M14 melanoma, more than 100 µM. Further, the GI50 in the test with NCI/ADR-RES ovarian was 43.2 µM; with OVCAR-4 ovarian it was 55.3 µM; with OVCAR-5 ovarian it was more than 100 µM; in the test with SNB-19 CNS, more than 100 µM. Besides, the TGI in the test with CAKI-1 renal, in the test on CCRF-CEM leukemia, in the test with HCC-2998 colon, in the test on HCT-15 colon, in the test on K-562 leukemia and in the test with M14 melanoma was more than 100 µM each time. The TGI in the test on NCI/ADR-RES ovarian, in the test on OVCAR-4 ovarian, with OVCAR-5 ovarian and with SNB-19 CNS was more than 100 µM throughout.

The values above are taken from PubChem BioAssay (NCI).
